Measurements taken from ChEMBL document CHEMBL1146615, “Heterocyclic thrombin inhibitors. Part 2: quinoxalinone derivatives as novel, potent antithrombotic agents” (Bioorg Med Chem Lett, 2003).

What was measured:
[1] = Partition coefficient (logP); format: physicochemical; settings: octanol/water
Coagulation factor X = Coagulation factor X (Homo sapiens, UniProt P00742); assay: Inhibition of coagulation factor X
Plasminogen = Plasminogen (Homo sapiens, UniProt P00747); assay: Inhibition of plasmin
Plasminogen, sequence (P00747 97-580 limits assumed): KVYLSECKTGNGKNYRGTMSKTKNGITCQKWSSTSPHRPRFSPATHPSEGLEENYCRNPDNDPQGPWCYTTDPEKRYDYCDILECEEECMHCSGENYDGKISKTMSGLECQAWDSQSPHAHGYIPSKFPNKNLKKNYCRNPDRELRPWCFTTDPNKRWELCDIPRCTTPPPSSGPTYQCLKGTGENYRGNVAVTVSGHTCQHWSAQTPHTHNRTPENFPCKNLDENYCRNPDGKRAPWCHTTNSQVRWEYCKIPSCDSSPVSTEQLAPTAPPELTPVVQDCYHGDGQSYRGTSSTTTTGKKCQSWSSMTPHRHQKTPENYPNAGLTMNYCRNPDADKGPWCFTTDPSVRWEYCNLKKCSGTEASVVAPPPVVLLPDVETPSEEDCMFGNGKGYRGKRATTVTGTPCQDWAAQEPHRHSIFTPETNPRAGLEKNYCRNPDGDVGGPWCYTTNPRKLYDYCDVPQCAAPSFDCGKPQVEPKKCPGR
Plasminogen, sequence (P00747 581-810 limits assumed): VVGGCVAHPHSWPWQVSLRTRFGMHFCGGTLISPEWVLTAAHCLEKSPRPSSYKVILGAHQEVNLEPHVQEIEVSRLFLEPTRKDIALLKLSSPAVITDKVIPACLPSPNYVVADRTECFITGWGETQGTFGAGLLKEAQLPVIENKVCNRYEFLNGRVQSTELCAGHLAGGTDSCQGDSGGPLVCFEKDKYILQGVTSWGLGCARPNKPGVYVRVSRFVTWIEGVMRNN

Homo sapiens = species on record: Homo sapiens; assay: Antithrombotic activity by measuring the activated partial thromboplastin time(aPPT) in human plasma; format: functional
Prothrombin = Prothrombin (Homo sapiens, UniProt P00734); assay: Inhibition of human thrombin
[2] = Inhibition of bovine trypsin; parameters: species or system Bos taurus

Coagulation factor X, sequence (P00742 41-179 limits assumed): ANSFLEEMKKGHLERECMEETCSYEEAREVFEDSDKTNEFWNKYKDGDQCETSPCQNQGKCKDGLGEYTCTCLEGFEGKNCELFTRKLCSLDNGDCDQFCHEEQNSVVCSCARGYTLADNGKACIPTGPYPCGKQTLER
Coagulation factor X, sequence (P00742 235-488 limits assumed): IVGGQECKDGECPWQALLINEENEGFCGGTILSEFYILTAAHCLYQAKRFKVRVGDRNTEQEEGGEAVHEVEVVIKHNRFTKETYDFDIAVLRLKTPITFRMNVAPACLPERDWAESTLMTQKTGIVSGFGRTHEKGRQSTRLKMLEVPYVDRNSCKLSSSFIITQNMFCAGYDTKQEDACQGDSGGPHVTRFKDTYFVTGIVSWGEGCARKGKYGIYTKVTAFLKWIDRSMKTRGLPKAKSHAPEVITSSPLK

Row | Compound | logP [1] | IC50 (Coagulation factor X) [µM] | IC50 (Plasminogen) [µM] | ED200 (Homo sapiens) [µM] | IC50 (Prothrombin) [µM] | IC50 [2] [µM]
1 | Cn1c(=O)c(Cc2ccc(C(=N)N)cc2)nc2cc(C(C)(C)C(=O)N3CCCC3)ccc21 | 1 | 0.5 | 53 | 0.16 | 0.005 | 0.32
2 | Cn1c(=O)c(Cc2ccc(C(=N)N)cc2)nc2cc(C3(C(=O)N4CCCC4)CC3)ccc21 | 1.5 | – | 66 | 0.095 | – | –
3 | Cn1c(=O)c(Cc2ccc(C(=N)N)cc2)nc2cc(C3(C(=O)O)CC3)ccc21 | – | > 100 | – | >10 | – | –
4 | Cn1c(=O)c(Cc2ccc(C(=N)N)cc2)nc2cc(C3(C(=O)N4CCCC4C(=O)NCC(=O)O)CC3)ccc21 (centres undefined) | – | > 100 | 68 | 0.91 | 0.19 | 2.4
5 | CC1CCCN(C(=O)C(C)(C)c2ccc3c(c2)nc(Cc2ccc(C(=N)N)cc2)c(=O)n3C)C1 (centres undefined) | – | 0.59 | – | 0.12 | 0.012 | –
6 | CCOC(=O)C1(c2ccc3c(c2)nc(Cc2ccc(C(=N)N)cc2)c(=O)n3C)CC1 | – | 46 | 69 | 0.67 | 0.027 | 0.58
7 | Cn1c(=O)c(Cc2ccc(C(=N)N)cc2)nc2cc(C(C)(C)C(=O)N3CCCCC3)ccc21 | – | 0.4 | 60 | 0.25 | 0.008 | 2.2
8 | Cn1c(=O)c(Cc2ccc(C(=N)N)cc2)nc2cc(C3(C(=O)N4CCCC4CO)CC3)ccc21 (centres undefined) | – | 1.4 | 72 | 0.21 | 0.013 | 0.85
9 | CN(C)C(=O)C(C)(C)c1ccc2c(c1)nc(Cc1ccc(C(=N)N)cc1)c(=O)n2C | – | 9.2 | > 100 | 0.41 | 0.016 | 9.5
10 | CCOC(=O)C(C)(C)c1ccc2c(c1)nc(Cc1ccc(C(=N)N)cc1)c(=O)n2C | 0.5 | 10.6 | 75 | 0.43 | 0.01 | 0.41
11 | CCOC(=O)C(C)(C)c1ccc2c(C)cc(Oc3ccc(C(=N)N)cc3)nc2c1 | 1.7 | 12.1 | – | 0.94 | – | 2.4
12 | Cn1c(=O)c(Cc2ccc(C(=N)N)cc2)nc2cc(C3(N(C(=O)CC(=O)O)C4CCCC4)CC3)ccc21 | – | 3 | 36 | 0.45 | 0.015 | 0.55
13 | Cn1c(=O)c(Cc2ccc(C(=N)N)cc2)nc2cc(C(C)(C)C(=O)N3CCNCC3)ccc21 | – | 31 | – | 0.71 | 0.068 | –
14 | CCOC(=O)C1(c2ccc3c(C)cc(Oc4ccc(C(=N)N)cc4)nc3c2)CCCC1 | – | – | – | – | 0.03 | 0.56
